From paper PMC9773825

Assay: not told

log partition chloroform / water/buffer (pH 3.5, 25): 1.14 log10
log partition octanol / water/buffer (pH 3.5, 25): −0.30 log10
log partition chloroform / water/buffer (pH 5.5, 25): 1.48 log10
log partition octanol / water/buffer (pH 5.5, 25): −0.16 log10
log partition chloroform / water/buffer (pH 7.4, 25): 1.46 log10
log partition octanol / water/buffer (pH 7.4, 25): −0.26 log10
Structure (SMILES): CON(C)Cc1ccc(O)c2c1CC1CC3C(N(C)C)C(O)=C(C(N)=O)C(=O)C3(O)C(O)=C1C2=O (stereo not drawn)
